Legend:
Human thrombin = Human thrombin (Homo sapiens (Human), UniProt P00734); assay: Thrombin protease activity inhibition assay (chromogenic substrate S-2238); type: biochemical; settings: 3 nM thrombin, 125 μM S-2238, 10 min pre-incubation, RT
Outline: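 Thrombin at 3 nM final in 0.05 M Tris pH 7.4, 0.015 M NaCl, 0.01% PEG-8000, at room temperature; compounds as ten-point three-fold dilutions.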

Human KLKB1 = Human KLKB1 (Homo sapiens (Human), UniProt P03952); assay: KLKB1 kallikrein activity inhibition assay (chromogenic substrate S-2302); type: biochemical; settings: Table B
Chain of Human KLKB1 (P03952 391-638 limits assumed): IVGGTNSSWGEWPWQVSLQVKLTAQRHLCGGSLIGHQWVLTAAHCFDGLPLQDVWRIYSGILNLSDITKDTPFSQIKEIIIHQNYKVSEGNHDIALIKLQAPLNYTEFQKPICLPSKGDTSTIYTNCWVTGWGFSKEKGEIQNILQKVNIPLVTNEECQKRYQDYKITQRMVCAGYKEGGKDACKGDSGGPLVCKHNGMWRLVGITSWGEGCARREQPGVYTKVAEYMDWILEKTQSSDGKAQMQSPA
Chain of Human KLKB1 (P03952 20-390 partner limits assumed): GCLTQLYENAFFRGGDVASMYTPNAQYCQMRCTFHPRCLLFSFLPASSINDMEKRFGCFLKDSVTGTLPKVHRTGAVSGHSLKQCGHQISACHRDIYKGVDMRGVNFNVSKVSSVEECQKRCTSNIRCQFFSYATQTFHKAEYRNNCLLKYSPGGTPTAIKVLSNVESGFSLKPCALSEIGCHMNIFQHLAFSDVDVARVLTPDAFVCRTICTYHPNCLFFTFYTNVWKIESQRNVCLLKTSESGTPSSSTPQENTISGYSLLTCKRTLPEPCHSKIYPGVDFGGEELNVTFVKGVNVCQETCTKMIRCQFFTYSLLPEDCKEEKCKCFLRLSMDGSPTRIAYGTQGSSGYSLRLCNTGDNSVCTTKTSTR
Outline: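 Enzyme at a final 3 nM was assayed in 0.05 M Tris pH 7.4, 0.01 M NaCl and 0.2% PEG-8000 at room temperature, with compounds as ten-point threefold dilutions.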

| Structure (SMILES) | IC50 (Human thrombin) [µM] | IC50 (Human KLKB1) [µM] |
| --- | --- | --- |
| COCC(C)(C)C(=O)n1nc(-c2cccn(Cc3ccccn3)c2=O)cc1NCc1ccc(Cl)s1 [Cmpd 101, 3-(5-[(5-chlorothiophen-2-yl)methyl]amino-1-(3-methoxy-2,2-dimethylpropanoyl)-1H-pyrazol-3-yl)-1-(pyridin-2-ylmethyl)-1,2-dihydropyridin-2-one] | < 0.1 | 10 to 100 |
| COCCn1cccc(-c2cc(NCc3ccc(Cl)s3)n(C(=O)c3ccccc3)n2)c1=O [Cmpd 62, 3-(1-benzoyl-5-[(5-chlorothiophen-2-yl)methyl]amino-1H-pyrazol-3-yl)-1-(2-methoxyethyl)-1,2-dihydropyridin-2-one] | < 0.1 | 1 to 10 |
| O=C(c1ccsc1)n1nc(-c2cccn(Cc3ccccc3)c2=O)cc1NCc1ccc(Cl)s1 [Cmpd 52, 1-benzyl-3-(5-[(5-chlorothiophen-2-yl)methyl]amino-1-[(thiophen-3-yl)carbonyl]-1H-pyrazol-3-yl)-1,2-dihydropyridin-2-one] | < 0.1 | 0.1 to 1 |
| O=C(c1cccc2c1OCCO2)n1nc(-c2cccn(Cc3ncccn3)c2=O)cc1NCc1ccc(Cl)s1 [Cmpd 116, 3-(5-[(5-chlorothiophen-2-yl)methyl]amino-1-[(2,3-dihydro-1,4-benzodioxin-5-yl)carbonyl]-1H-pyrazol-3-yl)-1-(pyrimidin-2-ylmethyl)-1,2-dihydropyridin-2-one] | < 0.1 | 1 to 10 |
| COc1ccc(C(=O)n2nc(-c3cccn(Cc4ccoc4)c3=O)cc2NCc2ccc(Cl)s2)c(OC)c1 [Cmpd 123, 3-(5-[(5-chlorothiophen-2-yl)methyl]amino-1-[(2,4-dimethoxyphenyl)carbonyl]-1H-pyrazol-3-yl)-1-(furan-3-ylmethyl)-1,2-dihydropyridin-2-one] | < 0.1 | 10 to 100 |
| CC(C)(C)C(=O)n1nc(-c2cccn(Cc3ccco3)c2=O)cc1NCc1ccc(Cl)s1 [Cmpd 77, 3-(5-[(5-chlorothiophen-2-yl)methyl]amino-1-(2,2-dimethylpropanoyl)-1H-pyrazol-3-yl)-1-(furan-2-ylmethyl)-1,2-dihydropyridin-2-one] | < 0.1 | > 100 |
| COc1ccc(C(=O)n2nc(-c3cccn(Cc4ccccc4)c3=O)cc2NCc2ccc(Cl)s2)c(OC)c1 [Cmpd 46, 1-benzyl-3-(5-[(5-chlorothiophen-2-yl)methyl]amino-1-[(2,4-dimethoxyphenyl)carbonyl]-1H-pyrazol-3-yl)-1,2-dihydropyridin-2-one] | < 0.1 | 10 to 100 |
| COCC(C)(C)C(=O)n1nc(-c2cccn(Cc3cccs3)c2=O)cc1NCc1ccc(Cl)s1 [Cmpd 105, 3-(5-[(5-chlorothiophen-2-yl)methyl]amino-1-(3-methoxy-2,2-dimethylpropanoyl)-1H-pyrazol-3-yl)-1-(thiophen-2-ylmethyl)-1,2-dihydropyridin-2-one] | < 0.1 | > 100 |
| O=C(c1ccco1)n1nc(-c2cccn(Cc3ccccn3)c2=O)cc1NCc1ccccc1 [Cmpd 238, 3-[5-(benzylamino)-1-[(furan-2-yl)carbonyl]-1H-pyrazol-3-yl]-1-(pyridin-2-ylmethyl)-1,2-dihydropyridin-2-one] | < 0.1 | 1 to 10 |
| O=C(c1cccc2c1OCCO2)n1nc(-c2cccn(Cc3cccs3)c2=O)cc1NCc1ccc(Cl)s1 [Cmpd 117, 3-(5-[(5-chlorothiophen-2-yl)methyl]amino-1-[(2,3-dihydro-1,4-benzodioxin-5-yl)carbonyl]-1H-pyrazol-3-yl)-1-(thiophen-2-ylmethyl)-1,2-dihydropyridin-2-one] | < 0.1 | > 100 |
| O=C(c1ccc(N2CCOCC2)cc1)n1nc(-c2cccn(Cc3ccncc3)c2=O)cc1NCc1ccc(Cl)s1 [Cmpd 214, 3-(5-[(5-chlorothiophen-2-yl)methyl]amino-1-[4-(morpholin-4-yl)phenyl]carbonyl-1H-pyrazol-3-yl)-1-(pyridin-4-ylmethyl)-1,2-dihydropyridin-2-one] | < 0.1 | 0.1 to 1 |
| O=C(c1ccco1)n1nc(-c2ccc[nH]c2=O)cc1NCc1ccccc1 [Cmpd 237, 3-[5-(benzylamino)-1-[(furan-2-yl)carbonyl]-1H-pyrazol-3-yl]-1,2-dihydropyridin-2-one] | 0.1 to 1 | 10 to 100 |
| COCCn1cccc(-c2cc(NCc3ccc(Cl)s3)n(C(=O)c3ccc(N4CCOCC4)cc3)n2)c1=O [Cmpd 208, 3-(5-[(5-chlorothiophen-2-yl)methyl]amino-1-[4-(morpholin-4-yl)phenyl]carbonyl-1H-pyrazol-3-yl)-1-(2-methoxyethyl)-1,2-dihydropyridin-2-one] | < 0.1 | 1 to 10 |
| O=C(c1cccs1)n1nc(-c2cccn(Cc3ccoc3)c2=O)cc1NCc1ccc(Cl)s1 [Cmpd 184, 3-(5-[(5-chlorothiophen-2-yl)methyl]amino-1-[(thiophen-2-yl)carbonyl]-1H-pyrazol-3-yl)-1-(furan-3-ylmethyl)-1,2-dihydropyridin-2-one] | < 0.1 | 10 to 100 |
| COc1ccccc1C(=O)n1nc(-c2cccn(Cc3cccnc3)c2=O)cc1NCc1ccc(Cl)s1 [Cmpd 140, 3-(5-[(5-chlorothiophen-2-yl)methyl]amino-1-[(2-methoxyphenyl)carbonyl]-1H-pyrazol-3-yl)-1-(pyridin-3-ylmethyl)-1,2-dihydropyridin-2-one] | < 0.1 | 0.1 to 1 |
| COCCn1cccc(-c2cc(NCc3ccc(Cl)s3)n(C(=O)c3ccc(OC)cc3OC)n2)c1=O [Cmpd 122, 3-(5-[(5-chlorothiophen-2-yl)methyl]amino-1-[(2,4-dimethoxyphenyl)carbonyl]-1H-pyrazol-3-yl)-1-(2-methoxyethyl)-1,2-dihydropyridin-2-one] | < 0.1 | 1 to 10 |
| COc1ccc(C(=O)n2nc(-c3cccn(CCN4CCOCC4)c3=O)cc2NCc2ccc(Cl)s2)c(OC)c1 [Cmpd 131, 3-(5-[(5-chlorothiophen-2-yl)methyl]amino-1-[(2,4-dimethoxyphenyl)carbonyl]-1H-pyrazol-3-yl)-1-[2-(morpholin-4-yl)ethyl]-1,2-dihydropyridin-2-one] | < 0.1 | 0.1 to 1 |
| O=C(c1ccoc1)n1nc(-c2cccn(Cc3ccccc3)c2=O)cc1NCc1ccc(Cl)s1 [Cmpd 50, 1-benzyl-3-(5-[(5-chlorothiophen-2-yl)methyl]amino-1-[(furan-3-yl)carbonyl]-1H-pyrazol-3-yl)-1,2-dihydropyridin-2-one] | < 0.1 | 10 to 100 |
| COCC(C)(C)C(=O)n1nc(-c2cccn(Cc3ccncc3)c2=O)cc1NCc1ccc(Cl)s1 [Cmpd 103, 3-(5-[(5-chlorothiophen-2-yl)methyl]amino-1-(3-methoxy-2,2-dimethylpropanoyl)-1H-pyrazol-3-yl)-1-(pyridin-4-ylmethyl)-1,2-dihydropyridin-2-one] | < 0.1 | 10 to 100 |
| CC1(C(=O)n2nc(-c3cccn(Cc4ccccc4)c3=O)cc2NCc2ccc(Cl)s2)CCOCC1 [Cmpd 48, 1-benzyl-3-(5-[(5-chlorothiophen-2-yl)methyl]amino-1-[(4-methyloxan-4-yl)carbonyl]-1H-pyrazol-3-yl)-1,2-dihydropyridin-2-one] | < 0.1 | > 100 |
| COCCn1cccc(-c2cc(NCc3ccc(Cl)s3)n(C(=O)c3ccco3)n2)c1=O [Cmpd 160, 3-(5-[(5-chlorothiophen-2-yl)methyl]amino-1-[(furan-2-yl)carbonyl]-1H-pyrazol-3-yl)-1-(2-methoxyethyl)-1,2-dihydropyridin-2-one] | > 100 | 0.1 to 1 |

From US9687479B2, “Multisubstituted aromatic compounds as serine protease inhibitors” (VERSEON CORPORATION, priority 2013, dated 2017)
